# Measurements from patent EP1113726B1, “USE OF NEOHESPERIDIN DIHYDROCHALCONE FOR THE MANUFACTURE OF A MEDICAMENT FOR PREVENTING OR TREATING ELEVATED BLOOD LIPID LEVEL-RELATED DISEASES” (Korea Research Institute of Bioscience and Biotechnology, priority 1998, dated 2000).
# What was measured:
# [1] = tested on: Sprague-Dawley rats; experiment: Plasma total cholesterol, HDL-cholesterol and neutral lipid levels in rats fed a high-cholesterol diet; settings: 1 % cholesterol diet plus 0.05 % neohesperidin dihydrochalcone, six weeks
# [2] = tested on: New Zealand White rabbits; experiment: Microscopic grading of abnormal fat-containing cells in the liver of cholesterol-fed rabbits (fatty liver); assay type: in vivo; settings: 1 % cholesterol diet for 6 weeks plus 1 mg/kg Lovastatin or 0.05 % neohesperidin dihydrochalcone
# Description: 30 three-month-old New Zealand White rabbits(Yeonam Horticulture and Animal Husbandry College, Korea), each weighing about 2.5 to 2.6 kg, were raised under a condition of temperature 20±2°C, relative humidity 55±5 %, and photoperiod 12L/12D. The rabbits were divided into 3 groups and 3 groups of rabbits were fed with 3 different diets, i.e., RC4 diet(Oriental Yeast Co., Japan) containing 1 % cholesterol(Control group); 1 % cholesterol plus 1 mg/kg Lovastatin®(Merck, U.S.A.)(Lovastatin group); and 1 % cholesterol plus 0.05 % neohesperidin dihydrochalcone(Neohesperidin dihydrochalcone group), respectively. RC4 diet comprises 7.6 % moisture, 22.8 % crude protein, 2.8 % crude fat, 8.8 % crude ash, 14.4 % crude cellulose and 43.6 % soluble nitrogen-free substances. Neohesperidin dihydrochalcone was purchased from Sigma Chemical Co.(St. Louis, MO).
# The rabbits were fed for 6 weeks while being allowed free access to the diets and water.
# In order to evaluate the effects of feeding a high cholesterol diet with neohesperidin dihydrochalcone on liver tissues, the liver specimens taken from the sacrificed rabbit in Step 2 of Example 6 were treated in accordance with the procedure disclosed in Fogt F. and Nanji A., Toxicology and Applied Pharmacology, 136, 87-93, 1996; and Keegan A., et al., Journal of Hepatology 23: 591-600, 1995, and observed under a microscope to be classified into four grades, i.e., 1+(0-25%), 2+(26-50%), 3+(51-75), 4+(76-100%) based on the proportion of abnormal fat-containing cells around the central vein in the liver acinus.
# Figs. 2A, 2B and 2C present the microscopic features of the livers of the rabbits administered with 1% cholesterol; 1% cholesterol plus 1 mg/kg Lovastatin®; 1% and cholesterol plus 0.05% neohesperidin dihydrochalcone, respectively.
# [3] = molecular target: T1, HMG-CoA reductase (Rattus norvegicus, UniProt P51639); experiment: HMG-CoA reductase activity assay (modified Hulcher's method) on liver microsomes of the diet-fed rats; assay type: biochemical; settings: ex vivo: liver microsomes of rats fed 1 % cholesterol plus 0.05 % neohesperidin dihydrochalcone for six weeks, versus Control group
# T1 construct: the supernatant was ultracentrifuged at 100,000xg for 60 minutes to obtain microsomal precipitates; from tissue; host or cells: rat liver microsomes
# T1 sequence (P51639 1-887): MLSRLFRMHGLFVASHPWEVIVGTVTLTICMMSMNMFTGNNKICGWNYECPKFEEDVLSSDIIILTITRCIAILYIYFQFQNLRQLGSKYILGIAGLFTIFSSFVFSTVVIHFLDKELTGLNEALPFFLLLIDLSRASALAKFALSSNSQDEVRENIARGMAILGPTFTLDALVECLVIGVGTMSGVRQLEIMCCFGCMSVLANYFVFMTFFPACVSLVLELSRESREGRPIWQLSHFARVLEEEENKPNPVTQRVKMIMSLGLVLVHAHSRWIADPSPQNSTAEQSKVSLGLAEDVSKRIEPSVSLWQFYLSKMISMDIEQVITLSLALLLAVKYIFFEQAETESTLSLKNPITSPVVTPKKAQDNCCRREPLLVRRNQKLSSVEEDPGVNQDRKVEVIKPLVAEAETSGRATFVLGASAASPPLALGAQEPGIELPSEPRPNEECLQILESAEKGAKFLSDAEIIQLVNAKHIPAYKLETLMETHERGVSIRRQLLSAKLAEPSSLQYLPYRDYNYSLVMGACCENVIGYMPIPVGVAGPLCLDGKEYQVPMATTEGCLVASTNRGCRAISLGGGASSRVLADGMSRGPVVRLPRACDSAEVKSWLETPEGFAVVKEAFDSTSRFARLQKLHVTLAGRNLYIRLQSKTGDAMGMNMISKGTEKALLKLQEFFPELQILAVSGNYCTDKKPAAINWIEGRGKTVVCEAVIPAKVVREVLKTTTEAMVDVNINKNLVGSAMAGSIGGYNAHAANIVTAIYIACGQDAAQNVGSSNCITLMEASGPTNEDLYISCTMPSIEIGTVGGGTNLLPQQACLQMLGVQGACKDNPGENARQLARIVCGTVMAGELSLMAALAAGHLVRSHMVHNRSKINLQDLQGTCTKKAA
# Description: In order to determine the activity of HMG-CoA reductase, Hulcher's method was employed after some modification (see J. Lipid Res., 14, 625-641(1973)). In this method, the concentration of the coenzyme-A(CoA-SH), which is produced when HMG-CoA is reduced to a mevalonate salt by the action of HMG-CoA reductase, is determined by spectroscopy and the activity of HMG-GoA reductase is calculated therefrom.
# 3 g of liver tissue taken from each group of rats of Example 2 was washed succesively with 100 ml of a cold-saline(0.15M NaCl) and 100ml of a cold buffer solution A(0.1M triethanolamine, HCl/0.2M EDTA/2mM dithiothreitol(DTT)). The cold buffer solution A was added to the liver tissue in an amount of 2 ml per 1 g of the liver tissue and the mixture was homogenized with a homogenizer. The homogenate was centrifuged at 15,000xg for 15 minutes, and then, the supernatant was ultracentrifuged at 100,000xg for 60 minutes to obtain microsomal precipitates. […]
# Then, the reactant was mixed with 20µl of DTNB buffer solution(3mM DTNH/0.1M triethanolamine/0.2M EDTA, pH 7.4) and the absorbance of the mixture was determined at 412nm to calculate the amount of CoA-SH(activity of HMG-CoA reductase).
# The extent of inhibition of HMG-CoA reductase activity by neohesperidin dihydrochalcone was calculated based on the above result.
smiles,measurement,setting,value
COc1ccc(CCC(=O)c2c(O)cc(O[C@@H]3O[C@H](CO)[C@@H](O)[C@H](O)[C@H]3O[C@@H]3O[C@@H](C)[C@H](O)[C@@H](O)[C@H]3O)cc2O)cc1O [Neohesperidin dihydrochalcone],(HDL-C)/(Total-C (%)),[1],16%
same,"neutral lipid content reduced, as compared with Control group",[1],9%
same,"total plasma cholesterol level reduced, as compared with Control group",[1],15%
same,HDL-C,[1]; n=10,19 ± 3 mg/dL
same,TG,[1]; n=10,52 ± 8 mg/dL
same,Total-C,[1]; n=10,115 ± 10 mg/dL
same,B: Proportion of abnormal fat-containing cells,"[2]; rabbit liver, cells around the central vein, mean of grades 1+ to 4+",2.7 (±0.3)
same,"microscopic features of the liver (Figs. 2B, 2C)",[2]; rabbits,almost all liver cells are of a normal shape
same,Inhibition of HMG-CoA reductase activity (%),[3],30%
